The source of these data is paper PMC10775556, “Synthesis, antileishmanial, antimalarial evaluation and molecular docking study of some hydrazine-coupled pyrazole derivatives” (BMC Chemistry, 2024).

For data set [1], the system named is chloroquine-resistant RKL9 strains. The note with it: read-out: IC50 against chloroquine-resistant RKL9 strains; cited from earlier work.
In data set [2] the test system is Plasmodium berghei ANKA strain. Nature of the data set: In vivo antimalarial four-day suppressive test. Also noted: species or system Swiss albino mice. The text has this: The four-day suppressive test was implemented to screen the antimalarial activity of the target compounds as it is effective in evaluating early infections and convenient to assess the prodrug effects of test compounds [30]. In this study, the in vivo antimalarial activity of the target compounds was investigated by using mice infected with Plasmodium berghei (achieve steady-state infection) at a dose of 48.4 µmol/kg per day. The results of the antimalarial activity screening of target compounds against the control groups were expressed based on mean parasitemia and percent inhibition of parasitemia (Table 2) which is known as a reliable parameter for in vivo antimalarial screening tests. […] While compounds 9, 10 and 11 containing amidic carbonyl group had less than 50% mean percent suppression compared to the positive control groups. Among the tested compounds, bis-[N,N-dimethylaminomethylene-4-(3-(4-methylphenyl)-4-(hydrazonomethylene)-1H-pyrazole-1-yl)benzenesulfonamide] […] On the other hand, there was an increase in the mean survival time (9.8 ± 1.3) of mice treated with a half dose ([…]) of compound 15, highlighting the potential dose-dependent toxicity associated with bis-structure due to cleavage of acid labile C = N bond and subsequent increase in concentration in the systemic circulation. […] This could be attributed to the presence of a primary amine group adjacent to the C = N bond that can increase the strength of binding interaction with the active site of the receptor by hydrogen bonding. Moreover, the hydrophobic interaction imparted by the methylated phenyl group with the amino acid residues in the enzyme pocket may be beneficial for the observed antimalarial activity of compound 14. The compounds containing C = O bond (9–12) near C = N had relatively lower antimalarial activity due to the electron-withdrawing effect and subsequent decrease in hydrogen bonding interactions with the different functional groups reside in the enzyme pocket.
The in vivo antimalarial activity of the synthesized compounds was determined using the four-day standard suppressive test using Swiss albino mice donated by the Ethiopian Health and Nutrition Institute, Addis Ababa, Ethiopia. Briefly, Swiss albino mice were infected with Plasmodium berghei ANKA strain (0.2 mL of 2 × 10^7 parasitized erythrocytes) through intraperitoneal injection. After 2 h of infection, the mice were weighed and randomly divided into nine groups of five mice per cage. Groups 1–7 received each test compound ([…]) dissolved in a vehicle containing 7% Tween 80, 3% ethanol, and water. Group 8 was treated with chloroquine phosphate (25 mg/kg) suspended in 7% Tween 80, 3% ethanol, and water which served as a positive control. Group 9 received 2 mL/100 g of the negative control (vehicle 7% Tween 80, 3% ethanol, and water). On day four (96 h post-infection), a blood smear was taken from the tail of each mouse, fixed with absolute ethanol, and stained with Giemsa stain. Then, the level of parasitemia was determined microscopically by counting four fields of approximately 100 erythrocytes per field. Finally, the antimalarial effects of control groups and test compounds were expressed in terms of blood parasitemia, percent suppression and mean survival time of mice.
The % suppression and % parasitemia in the antimalarial activity testing were computed using the formulas given below and the resulting data along with the mean survival time was analyzed using Microsoft office excel 2007. The variation in the values of suppressive test was assessed by using one-way analysis of variance (ANOVA) and p < 0.05 is considered as stastically significant.
Parasitemia(%)=Numberofinfectedredbloodcells/Numberoftotalredbloodcells×100
Suppression(%)=Parasitemiaintheuntreatedgroup-Parasitemiainthetreatedgroup/Parasitemiainuntreatedgroup×100

Data set [3] relates to Leishmania aethiopica promastigotes. Nature of the data set: In vitro antipromastigote (antileishmanial) assay, AlamarBlue. In kind it is cell-based. The protocol:
The viability of promastigotes can be estimated by microscopically counting live cells, measuring enzyme activities via the 3-(4,5-dimethyl-thiazol-2-yl)-2,5-diphenyl-tetrazolium bromide (MTT) assay, etc. The frequent use of these methods is hampered due to the lengthy and time-consuming procedures followed in the test. […] The extent of fluorescence produced by each sample is strongly correlated with the number of living cells.
A complete culture medium was prepared from RPMI-1640, 10% HIFCS, 1% penicillin–streptomycin, and 1% L-glutamine for the in vitro antipromastigote assay. The Leishmania aethiopica isolate was grown first on Novy-MacNeal-Nicolle (NNN) medium and then in tissue-culture flasks containing RPMI-1640 medium supplemented with 10% HIFCS and 1% 100 IU penicillin/mL-100 µg/mL streptomycin solution at 22 ℃ [35].
The entire test compound was dissolved in DMSO to a final concentration of 1 mg/mL. The final DMSO concentration was adjusted not to exceed v/v 1% to avoid its inhibitory effect against parasite proliferation or change in morphology. Six different concentrations of test compounds, ranging from 10 µg/mL to 0.04 µg/mL, were prepared by […] serial dilutions. Amphotericin B deoxycholate (with a concentration ranging from 0.5 µg/mL to 0.002 µg/mL) and miltefosine (with a concentration ranging from 40 µg/mL to 0.16 µg/mL) were used as a positive control and DMSO (v/v 1%) in complete media was used as a negative control to compare the antileishmanial activities of test compounds [36]. All the prepared drugs were stored at − 20 ℃ until used in the experiment.
The antileishmanial activity of the test compounds was evaluated in vitro against isolates of Leishmania aethiopica promastigotes. 100 µL of the parasite suspension containing 3 × 10^6 promastigotes per milliliter was added to 96-well plates. The six different concentrations of test compounds and reference drugs were then added in triplicate. DMSO in complete RPMI media was used as a negative control to compare the antileishmanial activities of the test compounds. After 24 h incubation, 20 µL of fluorochrome AlamarBlue® (12.5 mg resazurin dissolved in 100 mL of distilled water) was added to each well. Then, the absorbance of each well was measured after 4 h of incubation at wavelengths of 492 and 630 nm using an ELISA reader for the quantitative determination of viable cells. Finally, the IC50 values were computed from sigmoidal dose–response curves using GraphPad Prism 5.0 software (GraphPad Software, Inc., San Diego, CA, USA).

The nature of data set [4]: In vitro cytotoxicity test. In kind it is cell-based, African green monkey. The note with it: African green monkey, VERO cells (African green monkey kidney cells); normal VERO cells, 72 h, formazan OD. The protocol:
(§1) The cytotoxicity of compound 13 with promising antileishmanial activity was investigated in vitro against African green monkey kidney cells (VERO cells). In a 96-well plate, VERO cells (1 × 10^5 cells per well) were incubated in triplicates with different concentrations of compound 13 (0–100 µM) for 72 h at 37 ℃ incubator with 95% humidity and 5% CO2 and the cell viability was determined by measuring the optical density (OD) of formazan. […] The CC50 and IC50 values were computed using the formula: Growth inhibition (%) = (ODcontrol-ODtest/ODcontrol)×100 . In addition, the selectivity indices (SI) were computed using the formula SI = CC50/IC50.

A further data set has as its system VERO cells. As to the kind of experiment: In vitro cytotoxicity test. The note with it: CC50 VERO cells / IC50 Leishmania aethiopica. Type of data set: cell-based, African green monkey. The method, then:
as §1

Details of data set [5]: method as in PMID 25768697. To be noted: cited from earlier work.

Converted amounts (≈) assume the structure as drawn. Like-named read-outs stand apart in the source and are kept apart here.

As to `CCN(CC)CCCC(C)Nc1ccnc2cc(Cl)ccc12` (stereo not drawn) [CQ, Chloroquine phosphate, reference compound], the IC50 in data set [1] is 0.192 µM. In data set [2] (P. berghei infected mice, day 4, 48.46 µmol/kg per day (CQ 25 mg/kg), mean ± SD), the “% Parasitemia” value came out at 0%. Further, the inhibition in vivo at 48.46 µmol/kg in data set [2] (Plasmodium berghei, in Mus musculus, 96 h, read-out: % Suppression) amounted to 100%.

For orientation: CC50 means the concentration at which the toxic effect on the cells reaches its halfway point. With `CCCCCCCCCCCCCCCCOP(=O)([O-])OCC[N+](C)(C)C` [Miltefosine, hexadecylphosphocholine, reference compound], the IC50 is 3.13 µg/mL in data set [3] (Leishmania aethiopica promastigotes, triplicate, 24 h incubation + 4 h AlamarBlue, read-out: IC50 Values (µg/mL), antipromastigote activity); 7.68 µM in data set [3] (Leishmania aethiopica promastigotes, molar form of the µg/mL values, read-out: IC50 Values (µM/mL), antipromastigote activity); 7.9 µM in data set [3] (Leishmania aethiopica, value used for selectivity index, read-out: IC50 (µM) of antileishmanial activity (Table 3)). Further, in data set [4], half-maximal cytotoxicity (CC50 at 72 h) was put at 99.7 µM. Moreover, in the data set on VERO cells, the “SI (selectivity index, CC50/IC50)” value was 12.63. Further, in data set [5], the “IC50, antileishmanial activities” value is recorded as 3.1921 µg/mL (≈ 7.83 µM).
